Measured values: ChEMBL document CHEMBL6103655, “Structure and Synthesis of Amatyemides A and B, Cyclic Octadepsipeptides from South African Stromatolites” (2025)
Active and inactive are the calls of the source. The rule behind the calls is not given here.

Assays:
U-87 MG [1] = assay: Induction of oxidative stress in human U-87 MG cells assessed as reduction in GLuc expression at 3 to 6 uM incubated for 18 hrs in the presence of NAC; assay type: functional, cell-based; settings: U-87MG ATCC, dose 3-6 µM
U-87 MG [2] = assay: Induction of oxidative stress in human U-87 MG cells assessed as reduction in GLuc expression at 3 to 6 uM incubated for 18 hrs; assay type: functional, cell-based; settings: U-87MG ATCC, dose 3-6 µM
U-87 MG [3] = assay: Induction of oxidative stress in human U-87 MG cells cultured with GLuc assessed as change in cell viability at 3 to 6 uM incubated for 18 hrs by CellTiter-Glo luminescent assay; assay type: functional, cell-based; settings: U-87MG ATCC, dose 3-6 µM
HCT-116 = assay: Cytotoxicity against human HCT-116 cells incubated for 72 hrs by CellTiter-Glo assay; assay type: functional
SH-SY5Y = assay: Cytotoxicity against human SH-SY5Y cells assessed as reduction in cell viability at 10 uM incubated for 72 hrs by CellTiter-Glo assay; assay type: functional
Acinetobacter baumannii = assay: Antimicrobial activity against Acinetobacter baumannii ATCC BAA-1605 at 0.14 mg/mL in broth medium incubated for 14 to 16 hrs by Synergy4 plate reader analysis; assay type: functional, organism-based; settings: time 14-16 hrs
Pseudomonas aeruginosa = assay: Antimicrobial activity against Pseudomonas aeruginosa ATCC […] at 0.14 mg/mL in broth medium incubated for 14 to 16 hrs by Synergy4 plate reader analysis; assay type: functional, organism-based; settings: time 14-16 hrs
Klebsiella pneumoniae = assay: Antimicrobial activity against Klebsiella pneumoniae ATCC BAA-2344 at 0.14 mg/mL in broth medium incubated for 14 to 16 hrs by Synergy4 plate reader analysis; assay type: functional, organism-based; settings: time 14-16 hrs
Escherichia coli = assay: Antimicrobial activity against Escherichia coli ATCC BAA-2523 at 0.14 mg/mL in broth medium incubated for 14 to 16 hrs by Synergy4 plate reader analysis; assay type: functional, organism-based; settings: time 14-16 hrs
Staphylococcus aureus = assay: Antimicrobial activity against Staphylococcus aureus subsp. aureus ATCC 700698 at 0.14 mg/mL in broth medium incubated for 14 to 16 hrs by Synergy4 plate reader analysis; assay type: functional, organism-based; settings: time 14-16 hrs
Enterococcus faecium = assay: Antimicrobial activity against Enterococcus faecium ATCC BAA-2317 at 0.14 mg/mL in broth medium incubated for 14 to 16 hrs by Synergy4 plate reader analysis; assay type: functional, organism-based; settings: time 14-16 hrs
Candida albicans = assay: Antimicrobial activity against Candida albicans ATCC MYA-574 at 0.14 mg/mL in broth medium incubated for 14 to 16 hrs by Synergy4 plate reader analysis; assay type: functional, organism-based; settings: time 14-16 hrs
Cryptococcus neoformans = assay: Antimicrobial activity against Cryptococcus neoformans var. grubii ATCC 90112 at 0.14 mg/mL in broth medium incubated for 14 to 16 hrs by Synergy4 plate reader analysis; assay type: functional, organism-based; settings: time 14-16 hrs

For `CCCCCCCC[C@H]1OC(=O)[C@H](CC(C)C)N(C)C(=O)[C@H](C(C)C)NC(=O)[C@@H](Cc2ccccc2)NC(=O)[C@H]([C@@H](C)CC)OC(=O)[C@H]([C@@H](C)OC)NC(=O)[C@H](C)NC(=O)[C@H](CC(C)C)NC1=O` (stereo in doubt; 2a) [listing 1 of 2 here], the Activity (U-87 MG [1]) was “inactive”.
`CCCCCCCCCC[C@H]1OC(=O)[C@H](CC(C)C)N(C)C(=O)[C@H](C(C)C)NC(=O)[C@@H](Cc2ccccc2)NC(=O)[C@H]([C@@H](C)CC)OC(=O)[C@H]([C@@H](C)OC)NC(=O)[C@H](C)NC(=O)[C@H](CC(C)C)NC1=O` was tested, and the Activity (U-87 MG [2]) was “inactive”, the Activity (U-87 MG [3]) was “inactive” and the Activity (U-87 MG [1]) was “inactive”. For the same compound, the CC50 (HCT-116) was 3290 nM, the Activity (SH-SY5Y) was “inactive” and the Activity (Acinetobacter baumannii) was “inactive”. The Activity (Pseudomonas aeruginosa) was “inactive”, the Activity (Klebsiella pneumoniae) was “inactive” and the Activity (Escherichia coli) was “inactive”. The Activity (Staphylococcus aureus) was “inactive”, the Activity (Enterococcus faecium) was “inactive” and the Activity (Candida albicans) was “inactive”. For the same compound, the Activity (Cryptococcus neoformans) was “inactive”.
For `CCCCCCCC[C@H]1OC(=O)[C@H](CC(C)C)N(C)C(=O)[C@H](C(C)C)NC(=O)[C@@H](Cc2ccccc2)NC(=O)[C@H]([C@@H](C)CC)OC(=O)[C@H]([C@@H](C)OC)NC(=O)[C@H](C)NC(=O)[C@H](CC(C)C)NC1=O` (stereo in doubt; 2a) [listing 2 of 2 here], the CC50 (HCT-116) was 1750 nM and the Activity (SH-SY5Y) was ~50%.
With `CCCCCCCC[C@H]1OC(=O)[C@H](CC(C)C)N(C)C(=O)[C@H](C(C)C)NC(=O)[C@@H](Cc2ccccc2)NC(=O)[C@H]([C@@H](C)CC)OC(=O)[C@H]([C@@H](C)OC)NC(=O)[C@H](C)NC(=O)[C@H](CC(C)C)NC1=O` (stereo in doubt; 2) the Activity (U-87 MG [2]) was “Active”, the Activity (U-87 MG [3]) was “inactive” and the Activity (U-87 MG [1]) was “inactive”. For the same compound, the Activity (Acinetobacter baumannii) was “inactive”, the Activity (Pseudomonas aeruginosa) was “inactive” and the Activity (Klebsiella pneumoniae) was “inactive”. The Activity (Escherichia coli) was “inactive”, the Activity (Staphylococcus aureus) was “inactive” and the Activity (Enterococcus faecium) was “inactive”. For the same compound, the Activity (Candida albicans) was “inactive” and the Activity (Cryptococcus neoformans) was “inactive”.
For `COc1ccc(C[C@H](NC(=O)/C(C)=C/[C@H]2CSC([C@@H](C)[C@@H](O)C[C@H](C)C[C@H](O)C(C)(C)C)=N2)C(=O)N(C)[C@@H](C)C(=O)N(C)[C@@H]2C(=O)N3CCC[C@H]3C(=O)OC(C)[C@@H]2C)cc1` (some centres undefined), the Activity (U-87 MG [1]) was “Active”.
In the case of `C=C(C)[C@H]1Cc2c(ccc3c2O[C@@H]2COc4cc(OC)c(OC)cc4[C@@H]2C3=O)O1`, the Activity (U-87 MG [1]) is reported as “inactive”.
